Measurements from publication PMC8296573, “Synthesis and Biological Evaluation of Fingolimod Derivatives as Antibacterial Agents” (ACS Omega, 2021).
Values after ≈ are worked out from the molar mass of the structure shown. Where two headings read alike, the source gives them in different places.

Tests used:
[1] = test system: S. aureus ATCC 25923; assay: Antibacterial activity, pre-exposure (planktonic cells and biofilm formation); format: cell-based, Staphylococcus aureus; conditions: for MIC / inhibition at 5 µM / inhibition at 10 µM / inhibition at 15 µM / inhibition at 25 µM: Staphylococcus aureus, ATCC25923; for inhibition at 5 µM / inhibition at 10 µM / inhibition at 15 µM / inhibition at 25 µM / Average inhibition %, biofilms viability / Average inhibition %, planktonic cells viability: pre-exposure, ± SD
Description: (§1) The antimicrobial activity was assessed in a similar way for the initial screening and the dose–response evaluation against different bacterial strains. With the exception of the post-exposure experiment, the compounds were added to the wells along with the bacteria to test the ability of compounds to prevent bacterial growth and biofilm formation (pre-exposure). The compounds were diluted in DMSO and plated directly in 96-well plates before adding the bacterial culture, and plates were incubated for 18 h under aerobic conditions at 37 °C with shaking (220 rpm). The antibacterial activity of the compounds was assessed on planktonic cells and biofilms separately using two different measurements for each: optical density (turbidity) and resazurin reduction (viability) on planktonic cells and resazurin followed by a crystal violet staining assay (total biomass) on biofilms, as described in the following sections.
(§2) The resazurin staining was performed according to the protocol previously optimized with a few modifications.[46] Briefly, the planktonic solution was first transferred into a new 96-well plate and the OD of the planktonic solution was measured using a Varioskan LUX Multimode microplate reader (Thermo Scientific, Vantaa, Finland). Then, 10 μL of a 400 μM resazurin (R7017, Sigma-Aldrich, St. Louis, MO) diluted in phosphate-buffered saline (PBS) (Thermo Fisher Scientific, MA) was added to the wells (for a final resazurin concentration of 20 μM). The plate was incubated in the dark with shaking (220 rpm) for about 3–10 min at room temperature with S. aureus and A. baumannii (until the bacteria controls turned pink) or for 20 min at 37 °C with P. aeruginosa. Fluorescence was measured at λex = 560 nm and λem = 590 nm using the top optics of the Varioskan LUX Multimode microplate reader. The planktonic plate was then discarded. The original challenge plate containing the biofilms was washed once with PBS, and 200 μL of a 20 μM resazurin solution was added to the wells. The plate was incubated in the dark at 37 °C with shaking (220 rpm) for 30 min with S. aureus, 60 min with A. baumannii, and 90 min with P. aeruginosa. Fluorescence was measured as described for the planktonic solution. The biofilms were next treated with crystal violet staining.
(§3) After removing the resazurin solution from the plate, biofilms were fixed with ethanol 100% for 15 min at room temperature. Ethanol was then removed, and the biofilms were left to air-dry completely at RT. Crystal violet, diluted to 1:100 in deionized water from the 2.3% commercial solution (HT90132, Sigma-Aldrich, St. Louis, MO), was added to the wells and, after a 5 min incubation with the dye, the biofilms were washed twice with deionized water and left to air-dry for about 10 min. The dye was solubilized in ethanol 100% for 1 h, and absorbance was measured at 595 nm using a Multiskan Sky microplate spectrophotometer (Thermo Scientific, Vantaa, Finland).

[2] = test system: S. aureus ATCC 25923; assay: Antibacterial activity, post-exposure on preformed 18-h-old biofilms; format: cell-based, Staphylococcus aureus; conditions: for Average inhibition %, biofilms viability / Average inhibition %, planktonic cells viability / inhibition at 25 µM / inhibition at 50 µM / inhibition at 100 µM / inhibition at 200 µM: ± SD; for inhibition at 25 µM / inhibition at 50 µM / inhibition at 100 µM / inhibition at 200 µM: Staphylococcus aureus; for inhibition at 25 µM: ATCC25923, 25 µM; for inhibition at 50 µM: ATCC25923, 50 µM; for inhibition at 100 µM: ATCC25923, 100 µM; for inhibition at 200 µM: ATCC25923, 200 µM
Description: For the post-exposure experiment, bacteria were grown with no compounds in the same conditions for 18 h, after which the media was changed, and compounds were added on the preformed biofilms. The plates were then incubated in the same conditions for an additional 24 h before proceeding to the staining assays.
as §2, §3

[3] = test system: A. baumannii NCTC 13423; assay: Antibacterial activity, pre-exposure; format: cell-based, Acinetobacter baumannii; conditions: for Average inhibition %, biofilms viability / Average inhibition %, planktonic cells viability / inhibition at 10 µM / inhibition at 15 µM / inhibition at 25 µM / inhibition at 50 µM: A. baumannii NCTC 13423, pre-exposure, ± SD; for inhibition at 10 µM / inhibition at 15 µM / inhibition at 25 µM / inhibition at 50 µM / MIC: Acinetobacter baumannii, NCTC13423
Description: as §1, §2, §3

[4] = test system: P. aeruginosa ATCC 9027; assay: Antibacterial activity, pre-exposure; format: cell-based, Pseudomonas aeruginosa; conditions: for Average inhibition %, biofilms viability / Average inhibition %, planktonic cells viability / inhibition at 50 µM / inhibition at 100 µM / inhibition at 150 µM / inhibition at 200 µM: P. aeruginosa ATCC 9027, pre-exposure, ± SD; for MIC / inhibition at 50 µM / inhibition at 100 µM / inhibition at 150 µM / inhibition at 200 µM: Pseudomonas aeruginosa; for inhibition at 50 µM / inhibition at 100 µM / inhibition at 150 µM / inhibition at 200 µM: ATCC9027
Description: as §1, §2, §3

[5] = 10 µM, read-out: Average inhibition %, biofilms biomass
[6] = 10 µM, read-out: Average inhibition %, planktonic cells turbidity
[7] = 15 µM, read-out: Average inhibition %, biofilms biomass
[8] = 15 µM, read-out: Average inhibition %, planktonic cells turbidity
[9] = 25 µM, read-out: Average inhibition %, biofilms biomass
[10] = 25 µM, read-out: Average inhibition %, planktonic cells turbidity
[11] = read-out: Average inhibition %, biofilms biomass
[12] = read-out: Average inhibition %, planktonic cells turbidity
[13] = 50 µM, read-out: Average inhibition %, biofilms biomass
[14] = 50 µM, read-out: Average inhibition %, planktonic cells turbidity

CCCCCCCCc1ccc2ccc(CC(N)(CO)CO)nc2c1 [Compound 82, 2-Amino-2-[(7-octylquinolin-2-yl)methyl]propane-1,3-diol]
MIC ([1]; lowest concentration with no visible growth (>90% inhibition of turbidity and viability of planktonic cells), 18 h, read-out: MIC S. aureus ATCC 25923): 15 µM (≈ 5.17 µg/mL)
inhibition at 5 µM ([1]; 5 µM, read-out: Average inhibition %, biofilms biomass): 41.7 ± 5.1%
inhibition at 5 µM ([1]; 5 µM, read-out: Average inhibition %, planktonic cells turbidity): 32.8 ± 33.4%
inhibition at 10 µM [1, 5]: 67.2 ± 23.4%
inhibition at 10 µM [1, 6]: 61.5 ± 33.3%
inhibition at 15 µM [1, 7]: 94.4 ± 4.6%
inhibition at 15 µM [1, 8]: 99.9 ± 0.1%
inhibition at 25 µM [1, 9]: 93 ± 5.8%
inhibition at 25 µM [1, 10]: 99.9 ± 0.1%
MIC ([1]; read-out: MIC (S. aureus)): 15 µM (≈ 5.17 µg/mL)
MIC S. aureus ATCC 25923 ([1]; lowest concentration with no visible growth (>90% inhibition of turbidity and viability of planktonic cells), 18 h): same MIC as fingolimod
Average inhibition %, biofilms viability ([1]; 5 µM): 34.4 ± 13.6%
Average inhibition %, planktonic cells viability ([1]; 5 µM): 6.1 ± 10.6%
Average inhibition %, biofilms viability ([1]; 10 µM): 63.5 ± 30.9%
Average inhibition %, planktonic cells viability ([1]; 10 µM): 33 ± 57.1%
Average inhibition %, biofilms viability ([1]; 15 µM): 99.7 ± 0.3%
Average inhibition %, planktonic cells viability ([1]; 15 µM): 99.6 ± 0%
Average inhibition %, biofilms viability ([1]; 25 µM): 99.7 ± 0.4%
Average inhibition %, planktonic cells viability ([1]; 25 µM): 99.7 ± 0%
Average inhibition %, biofilms viability ([2]; 25 µM): 11.8 ± 8.4%
Average inhibition %, planktonic cells viability ([2]; 25 µM): 0 ± 0%
Average inhibition %, biofilms viability ([2]; 50 µM): 27.8 ± 14.6%
Average inhibition %, planktonic cells viability ([2]; 50 µM): 17.9 ± 25.5%
Inhibition of viability and total biomass of preformed biofilms ([2]; 100 μM): at least 70%
Average inhibition %, biofilms viability ([2]; 100 µM): 81.5 ± 32.8%
Average inhibition %, planktonic cells viability ([2]; 100 µM): 94.5 ± 10%
Average inhibition %, biofilms viability ([2]; 200 µM): 100.2 ± 0.2%
Average inhibition %, planktonic cells viability ([2]; 200 µM): 100.5 ± 0.5%
inhibition at 25 µM [2, 11]: 45.6 ± 7.5%
inhibition at 25 µM [2, 12]: 14.1 ± 11.7%
inhibition at 50 µM [2, 11]: 51.6 ± 10.3%
inhibition at 50 µM [2, 12]: 34.6 ± 28.4%
inhibition at 100 µM [2, 11]: 79.6 ± 17%
inhibition at 100 µM [2, 12]: 79.1 ± 11.5%
inhibition at 200 µM [2, 11]: 79.8 ± 5.7%
inhibition at 200 µM [2, 12]: 77.9 ± 10%
Average inhibition %, biofilms viability ([3]; 10 µM): 3.9 ± 5.3%
Average inhibition %, planktonic cells viability ([3]; 10 µM): 10.4 ± 9%
Average inhibition %, biofilms viability ([3]; 15 µM): 96.5 ± 6%
Average inhibition %, planktonic cells viability ([3]; 15 µM): 99.5 ± 0.5%
Average inhibition %, biofilms viability ([3]; 25 µM): 100.7 ± 1.1%
Average inhibition %, planktonic cells viability ([3]; 25 µM): 99.7 ± 0%
Average inhibition %, biofilms viability ([3]; 50 µM): 99 ± 1.3%
Average inhibition %, planktonic cells viability ([3]; 50 µM): 99.6 ± 0%
inhibition at 10 µM [3, 5]: 13.3 ± 12.9%
inhibition at 10 µM [3, 6]: 1 ± 1.4%
inhibition at 15 µM [3, 7]: 74.7 ± 11.1%
inhibition at 15 µM [3, 8]: 98.3 ± 2.5%
inhibition at 25 µM [3, 9]: 88.6 ± 7.8%
inhibition at 25 µM [3, 10]: 99.8%
inhibition at 50 µM [3, 13]: 82.6 ± 12.7%
inhibition at 50 µM [3, 14]: 99.4 ± 0.1%
MIC ([3]; pre-exposure, Inactive = no activity up to 50 μM, > = some inhibition but no MIC reached, read-out: MIC A. baumannii NCTC 13423): 15 µM (≈ 5.17 µg/mL)
MIC ([3]; supplementary molecular formula strings sheet, read-out: MIC (A. baumannii)): 15 µM (≈ 5.17 µg/mL)
Average inhibition %, biofilms viability ([4]; 50 µM): 6.4 ± 5.7%
Average inhibition %, planktonic cells viability ([4]; 50 µM): 53.2 ± 3.8%
Average inhibition %, biofilms viability ([4]; 100 µM): 8.3 ± 8.6%
Average inhibition %, planktonic cells viability ([4]; 100 µM): 48.1 ± 18.4%
Average inhibition %, biofilms viability ([4]; 150 µM): 3.5 ± 6%
Average inhibition %, planktonic cells viability ([4]; 150 µM): 57.4 ± 19%
Average inhibition %, biofilms viability ([4]; 200 µM): 31.5 ± 49.1%
Average inhibition %, planktonic cells viability ([4]; 200 µM): 51.6 ± 41.5%
MIC ([4]; ATCC9027, pre-exposure, Inactive = no activity up to 200 μM, > = some inhibition but no MIC reached, read-out: MIC P. aeruginosa ATCC 9027): > 200 µM
MIC ([4]; ATCC9027, supplementary molecular formula strings sheet, read-out: MIC (P. aeruginosa)): > 200 µM
inhibition at 50 µM [4, 13]: 7.6 ± 7%
inhibition at 50 µM [4, 14]: 46.8 ± 2.3%
inhibition at 100 µM ([4]; 100 µM, read-out: Average inhibition %, biofilms biomass): 1.8 ± 2.7%
inhibition at 100 µM ([4]; 100 µM, read-out: Average inhibition %, planktonic cells turbidity): 51.6 ± 8.5%
inhibition at 150 µM ([4]; 150 µM, read-out: Average inhibition %, biofilms biomass): 2.7 ± 4.8%
inhibition at 150 µM ([4]; 150 µM, read-out: Average inhibition %, planktonic cells turbidity): 61.3 ± 19.9%
inhibition at 200 µM ([4]; 200 µM, read-out: Average inhibition %, biofilms biomass): 27.5 ± 24.4%
inhibition at 200 µM ([4]; 200 µM, read-out: Average inhibition %, planktonic cells turbidity): 75.7 ± 14.1%
